Data reported in ChEMBL document CHEMBL4354831, “Novel Cell-Penetrating Peptide Conjugated Proteasome Inhibitors: Anticancer and Antifungal Investigations” (J Med Chem, 2020).
Converted amounts (≈) assume the structure as drawn. The source made the active and inactive calls. The rule behind the calls is not given here. Peptide text beside a SMILES is read from it.

Key:
HeLa [1] = test: Antiproliferative activity against human HeLa cells assessed as reduction in cell viability after 48 hrs by MTT assay; assay type: functional, cell-based
BE(2)-C [2] = test: Antiproliferative activity against human BE(2)-C cells assessed as reduction in cell viability after 48 hrs by MTT assay; assay type: functional, cell-based
HeLa [3] = test: Antiproliferative activity against human HeLa cells assessed as reduction in cell viability at 1000 uM after 48 hrs by MTT assay relative to control; assay type: functional
BE(2)-C [4] = test: Antiproliferative activity against human BE(2)-C cells assessed as reduction in cell viability at 1000 uM after 48 hrs by MTT assay relative to control; assay type: functional
HeLa [5] = test: Induction of pore formation in human HeLa cell membrane at 2xIC50 after 12 hrs by SEM analysis; assay type: cell-based
BE(2)-C [6] = test: Induction of pore formation in human BE(2)-C cell membrane at 2xIC50 after 12 hrs by SEM analysis; assay type: functional, cell-based
HeLa [7] = test: Induction of membrane blebbing in human HeLa cells at 2xIC50 after 12 hrs by SEM analysis; assay type: cell-based; settings: Cell membrane
BE(2)-C [8] = test: Induction of membrane blebbing in human BE(2)-C cells at 2xIC50 after 12 hrs by SEM analysis; assay type: cell-based; settings: Cell membrane
Candida albicans [9] = test: Antifungal activity against Candida albicans SC5314 at 100 uM after 48 hrs; assay type: functional, organism-based
[10] = Selectivity ratio of IC50 for antiproliferative activity against human BE(2)-C cells to IC50 for antiproliferative activity against human HeLa cells after 48 hrs by MTT assay; assay type: functional
20S proteasome = test: Inhibition of human 20S proteasome using Suc-LLVY-AMC as substrate measured every 5 mins for 120 mins by fluorescence based assay; assay type: protein-complex assay
Candida albicans [11] = test: Antifungal activity against Candida albicans SC5314 after 48 hrs; assay type: functional; settings: SC5314, 48 h
Candida albicans [12] = test: Induction of pore formation in Candida albicans SC5314 membrane by SEM analysis; assay type: organism-based; settings: Cell membrane
Candida albicans [13] = test: Induction of hyphal disruption in Candida albicans SC5314 by SEM analysis; assay type: organism-based; settings: Hyphae

IC50 (HeLa [1]) [µM]	IC50 (20S proteasome) [µM]	MIC (Candida albicans [11]) [µM]	SMILES	IC50 (BE(2)-C [2]) [µM]	inhibition at 1000 µM (HeLa [3]) [%]	inhibition at 1000 µM (BE(2)-C [4]) [%]	Activity (HeLa [5])	Activity (BE(2)-C [6])	Activity (HeLa [7])	Activity (BE(2)-C [8])	Activity (Candida albicans [9])	Ratio IC50 [10]	Activity (Candida albicans [12])	Activity (Candida albicans [13])
39.1	0.136	> 100	CC(=O)N[C@@H](CC(C)C)C(=O)N[C@@H](CC(C)C)C(=O)N[C@H](C=O)CC(C)C (Ac-Leu-Leu-Leu-aldehyde)	61.3	–	–	–	–	–	–	–	1.5	–	–
29.4	0.0064	> 100	CC(=O)N[C@@H](Cc1ccc(O)cc1)C(=O)N[C@@H](CC(C)C)C(=O)N[C@@H](Cc1ccccc1)C(=O)N[C@H](C=O)CC(C)C (Ac-YLFL-aldehyde)	43.3	–	–	–	–	–	–	–	1.5	–	–
–	–	1.56 (≈ 1.44 µg/mL)	C[C@@H]1[C@H](O)[C@@H](C)/C=C/C=C/C=C/C=C/C=C/C=C/C=C/[C@H](O[C@@H]2O[C@H](C)[C@@H](O)[C@H](N)[C@@H]2O)C[C@@H]2O[C@](O)(C[C@@H](O)C[C@@H](O)[C@H](O)CC[C@@H](O)C[C@@H](O)CC(=O)O[C@H]1C)C[C@H](O)[C@H]2C(=O)O [AMPHOTERICIN B]	–	–	–	–	–	–	–	–	–	Active	inactive

SMILES	IC50 (HeLa [1]) [µM]	IC50 (20S proteasome) [µM]	MIC (Candida albicans [11]) [µM]	IC50 (BE(2)-C [2]) [µM]	inhibition at 1000 µM (HeLa [3]) [%]	inhibition at 1000 µM (BE(2)-C [4]) [%]	Activity (HeLa [5])	Activity (BE(2)-C [6])	Activity (HeLa [7])	Activity (BE(2)-C [8])	Activity (Candida albicans [9])	Ratio IC50 [10]	Activity (Candida albicans [12])	Activity (Candida albicans [13])
CC(=O)N[C@@H](Cc1ccc(O)cc1)C(=O)NCC(=O)N[C@@H](CCCNC(=N)N)C(=O)N[C@@H](CCCCN)C(=O)N[C@@H](CCCCN)C(=O)N[C@@H](CCCNC(=N)N)C(=O)N[C@@H](CCCNC(=N)N)C(=O)N[C@@H](CCC(N)=O)C(=O)N[C@@H](CCCNC(=N)N)C(=O)N[C@@H](CCCNC(=N)N)C(=O)N[C@@H](CCCNC(=N)N)C(=O)O	62.5	–	–	94	70	70	inactive	inactive	inactive	inactive	inactive	–	–	–
